Assay results: patent publication US20090217390A1, “Non-human animal sarcoma model” (priority 2005, published 2009)
Several values for one entry are separate records, joined by “and”; a condition that tells them apart may be missing. Equal values may be shown once.

How the values were obtained:
Assay type in all cases: cell-based, mouse
[1] = test system: C3H/10T1/2 parental cell line; experiment: Cytotoxicity experiment with increasing doses of blasticidin; conditions: doses 0.3-3 μg/ml
Protocol: The selective blasticidin dose was established on the basis of a previous cytotoxicity experiment for the C3H/10T1/2 parental cell line, which received increasing doses of blasticidin (0.3, 0.6, 0.8, 1, 1.5, 2, 2.5, 3 μg/ml). 2 μg/ml was determined to be the lowest dose that induced 100% death due to cytotoxicity.

[2] = test system: EWS-FLI1 chimeric fusion expression in clone 7.5; experiment: Induction of chimeric fusion by doxycycline (RT-PCR), clone 7.5; conditions: 48 hours
Protocol: (§1) FIG. 3. Induction of chimeric fusion by Doxycycline. A. Upper gel. Induction of chimeric fusion following treatment of the cells with increasing doxycycline doses (0-3 μg/ml) in clone 7.5. The maximum induction was obtained for 2.5-μg/ml doxycycline doses. Lower gel. The quantity of amplified product was identical in all cases, as shown by Beta-actin. B. Upper gel. The maximum induction for clone 10.6 was at 1.5-μg/ml doxycycline doses. Higher doses caused saturation of the promoter's response. Lower gel. Beta-actin.
(§2) Clones 7.5 and 10.6 received increasing doses of doxycycline for 48 hours, after which time the presence of fusion was examined by means of RT-PCR.

[3] = test system: EWS-FLI1 chimeric fusion expression in clone 10.6; experiment: Induction of chimeric fusion by doxycycline (RT-PCR), clone 10.6; conditions: 48 hours
Protocol: as §1, §2

SMILES | lowest dose that induced 100% death due to cytotoxicity [1] [µg/mL] | doxycycline dose causing a slight induction of chimeric fusion [2] [µg/mL] | doxycycline concentration of maximum induction of chimeric fusion ([2]; doses 0-3 μg/ml) [µg/mL] | doxycycline concentration of maximum induction of chimeric fusion (higher doses cause no greater induction) [3] | doxycycline dose at which induction of fusion was found [3]
CN(CC[C@H](N)CC(=O)N[C@H]1C=C[C@H](n2ccc(N)nc2=O)O[C@@H]1C(=O)O)C(=N)N [blasticidin] | 2 |  |  |  | 
C[C@H]1c2cccc(O)c2C(=O)C2=C(O)[C@]3(O)C(=O)C(C(N)=O)=C(O)[C@@H](N(C)C)[C@@H]3[C@@H](O)[C@@H]21 [doxycycline] |  | 0.3 | 2.5 | 1.5 to 2 µg/mL and 1.5 µg/mL | greater than 0.3 μg/ml
